Assay [1] relates to HL-60 (human leukaemia) cell line. Kind of assay: MTT cell proliferation assay, HL-60. The following applies: HL-60, MTT assay, 2 days, read-out: IC50, growth inhibition. The format is cell-based. Here is the method: (§1) Cancer assays were performed using MTT cell proliferation assays with three different immortalised cell lines: a human leukaemia cell line (HL-60), an ovarian cancer cell line (1A9) and a breast cancer cell line (MCF7).
(§2) HL-60, 1A9 and MCF cells were cultured at 37° C. in a 5% CO2 in air atmosphere in RPMI-1640 medium supplemented with 10% fetal calf serum, 100 units/mL penicillin, and 100 units/mL streptomycin (with 0.1% insulin added to the medium for 1A9 and MCF7 cell cultures). An MTT cell proliferation assay was used that involved the reduction of 3-(4,5-dimethylthiazol-2-yl)-2,5-diphenoyltetrazolium bromide (MTT) by viable cells as previously described.^14 Cells were treated with compounds of the invention in 96-well plates (duplicate wells) for 2 days (for HL-60) or 3 days (for 1A9 or MCF7), then incubated with 5 mg/mL MTT in phosphate-buffered saline for 2 h. The blue crystals that formed were solubilised in 10% sodium dodecyl sulfate, 45% dimethylformamide and the absorbance of the solutions measured at 570 nm in a multiwell plate reader (EnSpire™ 2300 Multiplate Reader from Perkin Elmer, Waltham, USA. The half-maximal inhibitory concentration (IC50) was calculated from a concentration-response curve using Sigma Plot software v8 (Systat Software Inc. Point Richmond, Calif.).
(In general: Tetrazolium dyes change colour on reduction, which living cells bring about.)

The next assay deals with c-Src (sarcoma) kinase (Homo sapiens, UniProt P12931). To be noted: cited from earlier work.
Chain of c-Src (sarcoma) kinase (P12931 whole entry): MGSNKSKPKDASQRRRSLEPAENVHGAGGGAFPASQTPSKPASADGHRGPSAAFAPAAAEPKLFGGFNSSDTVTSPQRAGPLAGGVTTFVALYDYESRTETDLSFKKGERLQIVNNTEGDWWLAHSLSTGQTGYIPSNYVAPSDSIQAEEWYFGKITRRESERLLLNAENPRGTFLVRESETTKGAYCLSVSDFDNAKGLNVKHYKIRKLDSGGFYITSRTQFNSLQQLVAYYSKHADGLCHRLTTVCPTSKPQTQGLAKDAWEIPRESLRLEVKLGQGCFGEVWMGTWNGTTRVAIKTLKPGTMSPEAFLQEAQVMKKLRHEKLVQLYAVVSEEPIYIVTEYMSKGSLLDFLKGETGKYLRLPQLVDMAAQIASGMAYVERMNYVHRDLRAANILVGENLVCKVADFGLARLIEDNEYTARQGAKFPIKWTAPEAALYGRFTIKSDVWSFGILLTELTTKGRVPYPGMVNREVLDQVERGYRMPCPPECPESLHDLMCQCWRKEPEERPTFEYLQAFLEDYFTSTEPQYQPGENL
For assay [2], the system named is PTH-induced bone resorption. To be noted: cited from earlier work.
For assay [3], the system named is 1A9 (ovarian cancer) cell line. Kind of assay: MTT cell proliferation assay, 1A9. The format is cell-based. The following applies: 1A9, MTT assay, 3 days; read-out: IC50, growth inhibition. Here is the method:
as §1, §2

A further assay addresses T1, NUAK2 (Homo sapiens, UniProt Q9H093).
T1 sequence (Q9H093 1-628): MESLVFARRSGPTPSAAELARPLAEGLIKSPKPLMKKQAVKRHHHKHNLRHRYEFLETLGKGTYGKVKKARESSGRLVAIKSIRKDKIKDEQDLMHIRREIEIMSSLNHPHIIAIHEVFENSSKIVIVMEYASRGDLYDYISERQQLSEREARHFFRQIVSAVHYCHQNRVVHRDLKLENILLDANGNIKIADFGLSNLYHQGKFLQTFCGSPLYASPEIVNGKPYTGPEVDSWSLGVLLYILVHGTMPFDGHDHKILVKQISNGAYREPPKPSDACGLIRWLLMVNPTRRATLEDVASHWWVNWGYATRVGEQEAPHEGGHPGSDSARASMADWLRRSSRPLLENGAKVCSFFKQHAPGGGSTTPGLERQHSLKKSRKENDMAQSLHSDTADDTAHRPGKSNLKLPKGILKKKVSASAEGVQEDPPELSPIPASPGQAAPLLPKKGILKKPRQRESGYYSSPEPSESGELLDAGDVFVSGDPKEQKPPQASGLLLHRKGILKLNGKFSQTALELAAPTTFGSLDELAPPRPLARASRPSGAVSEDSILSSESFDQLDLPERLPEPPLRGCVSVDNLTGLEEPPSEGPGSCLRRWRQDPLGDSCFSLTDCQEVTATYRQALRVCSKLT
The experiment in a line: SelectScreen kinase profiling, LanthaScreen protocol. The format is biochemical. Here is the method:
(§3) Kinase inhibition assays were conducted by Life Technologies using their SelectScreen® Whole Panel ACCESS Biochemical Kinase Profiling Service. The Z'-LYTE® Screening Protocol was used to obtain the results for the following kinases: AMPK A2/B1/G1, BMX, BTK, MAPK14 (p38 alpha), PLK1, TXK. The LanthaScreen Protocol was used to obtain the result for the following kinase: NUAK2.
(§4) Compound 10 was assessed for kinase inhibition by Life Technologies using the SelectScreen® Whole Panel ACCESS Biochemical Kinase Profiling Service. The Z'-LYTE® Screening Protocol was used to obtain the results for the following kinases: AMPK A2/B1/G1, BMX, BTK, MAPK14 (p38 alpha), PLK1, TXK. The LanthaScreen Protocol was used to obtain the result for the following kinase: NUAK2.
On the technique in general: In TR-FRET formats the signal depends on donor and acceptor labels being close together.

A further assay concerns the target T2, BMX (Homo sapiens, UniProt P51813).
T2 sequence (P51813 1-675): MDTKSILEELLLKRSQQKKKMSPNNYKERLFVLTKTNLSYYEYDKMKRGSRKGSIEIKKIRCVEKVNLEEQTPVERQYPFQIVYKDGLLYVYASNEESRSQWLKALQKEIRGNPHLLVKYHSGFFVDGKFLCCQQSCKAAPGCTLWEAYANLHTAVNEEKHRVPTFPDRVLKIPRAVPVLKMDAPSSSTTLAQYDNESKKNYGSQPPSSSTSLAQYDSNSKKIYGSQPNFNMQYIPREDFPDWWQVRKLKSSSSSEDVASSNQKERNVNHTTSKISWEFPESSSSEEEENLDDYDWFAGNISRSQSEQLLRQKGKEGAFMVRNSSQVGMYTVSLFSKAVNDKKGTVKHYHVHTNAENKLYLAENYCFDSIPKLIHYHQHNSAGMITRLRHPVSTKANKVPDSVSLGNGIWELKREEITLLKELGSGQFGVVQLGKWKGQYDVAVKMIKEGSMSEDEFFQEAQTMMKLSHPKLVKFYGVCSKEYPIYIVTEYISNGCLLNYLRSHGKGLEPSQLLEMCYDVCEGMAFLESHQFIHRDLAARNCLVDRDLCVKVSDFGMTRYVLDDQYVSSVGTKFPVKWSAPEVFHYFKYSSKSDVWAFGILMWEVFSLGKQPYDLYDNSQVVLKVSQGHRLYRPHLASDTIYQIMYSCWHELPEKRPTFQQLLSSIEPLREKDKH
Kind of assay: SelectScreen kinase profiling, Z'-LYTE protocol. The format is biochemical. Here is the method: as §3, §4

For a further assay, the target named is PLK1 (Homo sapiens, UniProt P53350). The experiment in a line: SelectScreen kinase profiling, Z'-LYTE protocol. The format is biochemical. Here is the method:
as §3, §4

The next assay concerns the target MAPK14 (p38 alpha) (Homo sapiens, UniProt Q16539). The experiment in a line: SelectScreen kinase profiling, Z'-LYTE protocol. The class given is biochemical. Here is the method: as §3, §4
For the next assay, the target named is AMPK A2/B1/G1 (Homo sapiens, UniProt P54646). Kind of assay: SelectScreen kinase profiling, Z'-LYTE protocol. The class given is biochemical. As to the method:
as §3, §4

Assay [4] deals with BTK (Bruton's tyrosine kinase) (Homo sapiens, UniProt Q06187). The experiment in a line: SelectScreen kinase profiling, Z'-LYTE protocol. The class given is biochemical. As to the method: as §3, §4
Chain of BTK (Bruton's tyrosine kinase) (Q06187 whole entry): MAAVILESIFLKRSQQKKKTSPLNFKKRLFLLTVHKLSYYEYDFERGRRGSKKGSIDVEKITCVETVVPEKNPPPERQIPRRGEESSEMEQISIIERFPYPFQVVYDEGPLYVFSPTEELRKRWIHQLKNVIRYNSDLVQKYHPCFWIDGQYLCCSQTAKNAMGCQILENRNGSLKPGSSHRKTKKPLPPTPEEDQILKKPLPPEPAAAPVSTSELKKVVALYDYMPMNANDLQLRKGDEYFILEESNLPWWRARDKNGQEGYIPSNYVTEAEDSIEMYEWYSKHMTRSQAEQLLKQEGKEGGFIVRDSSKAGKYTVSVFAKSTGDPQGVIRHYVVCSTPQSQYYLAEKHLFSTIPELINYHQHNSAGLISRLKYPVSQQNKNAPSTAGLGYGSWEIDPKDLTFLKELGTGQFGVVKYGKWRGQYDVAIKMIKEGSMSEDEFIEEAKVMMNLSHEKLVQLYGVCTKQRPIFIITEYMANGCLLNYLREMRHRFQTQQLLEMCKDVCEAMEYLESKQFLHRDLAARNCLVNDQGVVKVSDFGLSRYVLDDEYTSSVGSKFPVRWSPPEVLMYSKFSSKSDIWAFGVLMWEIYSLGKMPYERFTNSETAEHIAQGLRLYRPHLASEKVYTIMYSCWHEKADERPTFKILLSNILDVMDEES
Another assay has as its target T3, TXK (Homo sapiens, UniProt P42681).
T3 sequence (P42681 1-527): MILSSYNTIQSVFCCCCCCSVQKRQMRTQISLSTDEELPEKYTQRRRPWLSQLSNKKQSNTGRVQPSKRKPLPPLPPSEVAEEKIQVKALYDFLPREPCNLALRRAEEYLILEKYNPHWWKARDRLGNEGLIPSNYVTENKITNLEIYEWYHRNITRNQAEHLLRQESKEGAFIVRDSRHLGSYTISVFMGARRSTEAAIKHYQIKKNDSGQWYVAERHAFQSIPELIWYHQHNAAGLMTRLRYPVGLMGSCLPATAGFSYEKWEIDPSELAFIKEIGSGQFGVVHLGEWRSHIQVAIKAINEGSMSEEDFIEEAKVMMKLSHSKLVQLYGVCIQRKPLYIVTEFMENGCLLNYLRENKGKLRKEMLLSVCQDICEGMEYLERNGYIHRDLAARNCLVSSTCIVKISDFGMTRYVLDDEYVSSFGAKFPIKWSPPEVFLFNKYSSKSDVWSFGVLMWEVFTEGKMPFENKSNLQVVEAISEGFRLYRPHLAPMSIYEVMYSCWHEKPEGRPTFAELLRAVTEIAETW
The experiment in a line: SelectScreen kinase profiling, Z'-LYTE protocol. The format is biochemical. Here is the method:
as §3, §4

Assay [5] has as its system MCF7 (breast cancer) cell line. The experiment in a line: MTT cell proliferation assay, MCF7. The format is cell-based. To be noted: Homo sapiens, 72 h, 3 days, read-out: IC50, growth inhibition. Here is the method:
as §1, §2

The mark [6] stands for this setting: read-out: Inhibition (IC50 at 10 μM).
Where [7] appears, read: single-point, read-out: percent inhibition.

Like-named read-outs stand apart in the source and are kept apart here.

Chain of AMPK A2/B1/G1 (P54646 whole entry): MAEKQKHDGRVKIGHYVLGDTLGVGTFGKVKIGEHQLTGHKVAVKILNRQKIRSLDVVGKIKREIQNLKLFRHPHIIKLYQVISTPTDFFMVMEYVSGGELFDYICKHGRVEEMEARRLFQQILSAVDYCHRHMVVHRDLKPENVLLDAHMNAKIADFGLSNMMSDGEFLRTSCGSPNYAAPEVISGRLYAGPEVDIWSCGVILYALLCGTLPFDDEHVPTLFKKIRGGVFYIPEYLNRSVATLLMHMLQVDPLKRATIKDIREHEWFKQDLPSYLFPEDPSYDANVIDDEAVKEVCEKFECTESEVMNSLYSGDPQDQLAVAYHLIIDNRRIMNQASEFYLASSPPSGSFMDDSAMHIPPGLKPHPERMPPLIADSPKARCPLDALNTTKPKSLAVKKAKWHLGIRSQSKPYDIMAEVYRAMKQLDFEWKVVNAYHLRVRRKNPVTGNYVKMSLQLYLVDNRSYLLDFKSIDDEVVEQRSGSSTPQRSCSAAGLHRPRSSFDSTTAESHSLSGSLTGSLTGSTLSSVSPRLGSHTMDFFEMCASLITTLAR
Chain of AMPK A2/B1/G1 (Q9Y478 whole entry partner): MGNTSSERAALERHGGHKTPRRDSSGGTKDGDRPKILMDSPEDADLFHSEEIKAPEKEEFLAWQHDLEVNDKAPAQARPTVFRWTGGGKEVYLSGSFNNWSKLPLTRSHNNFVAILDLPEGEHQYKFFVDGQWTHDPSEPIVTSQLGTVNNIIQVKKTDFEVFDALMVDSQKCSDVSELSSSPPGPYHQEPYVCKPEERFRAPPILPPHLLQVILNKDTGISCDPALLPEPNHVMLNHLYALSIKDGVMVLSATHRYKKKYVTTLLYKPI
Chain of AMPK A2/B1/G1 (P54619 whole entry partner): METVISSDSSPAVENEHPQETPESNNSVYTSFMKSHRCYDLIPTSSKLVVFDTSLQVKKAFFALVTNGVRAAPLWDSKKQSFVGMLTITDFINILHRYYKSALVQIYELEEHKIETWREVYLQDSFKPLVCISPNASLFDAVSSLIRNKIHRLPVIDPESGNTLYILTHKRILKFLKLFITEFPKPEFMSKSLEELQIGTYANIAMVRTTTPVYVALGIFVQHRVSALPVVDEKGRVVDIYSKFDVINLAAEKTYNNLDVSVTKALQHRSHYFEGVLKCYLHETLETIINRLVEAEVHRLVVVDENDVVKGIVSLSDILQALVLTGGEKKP
Chain of PLK1 (P53350 whole entry): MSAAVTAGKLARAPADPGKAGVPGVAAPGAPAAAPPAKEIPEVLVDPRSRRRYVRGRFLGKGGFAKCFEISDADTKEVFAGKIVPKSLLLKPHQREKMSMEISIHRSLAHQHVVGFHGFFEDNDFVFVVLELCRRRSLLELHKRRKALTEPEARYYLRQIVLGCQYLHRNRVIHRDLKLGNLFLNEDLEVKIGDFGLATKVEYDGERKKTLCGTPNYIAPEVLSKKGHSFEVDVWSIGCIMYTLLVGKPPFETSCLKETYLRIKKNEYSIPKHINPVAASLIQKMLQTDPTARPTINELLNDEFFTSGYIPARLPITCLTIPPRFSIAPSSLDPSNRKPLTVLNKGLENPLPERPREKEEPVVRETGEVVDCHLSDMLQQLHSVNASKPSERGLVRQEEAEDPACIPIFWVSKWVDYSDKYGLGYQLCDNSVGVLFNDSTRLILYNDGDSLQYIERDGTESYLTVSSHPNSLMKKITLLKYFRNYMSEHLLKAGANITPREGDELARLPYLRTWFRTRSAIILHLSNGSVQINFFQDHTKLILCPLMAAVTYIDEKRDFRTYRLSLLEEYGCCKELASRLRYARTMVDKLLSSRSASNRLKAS
Chain of MAPK14 (p38 alpha) (Q16539 whole entry): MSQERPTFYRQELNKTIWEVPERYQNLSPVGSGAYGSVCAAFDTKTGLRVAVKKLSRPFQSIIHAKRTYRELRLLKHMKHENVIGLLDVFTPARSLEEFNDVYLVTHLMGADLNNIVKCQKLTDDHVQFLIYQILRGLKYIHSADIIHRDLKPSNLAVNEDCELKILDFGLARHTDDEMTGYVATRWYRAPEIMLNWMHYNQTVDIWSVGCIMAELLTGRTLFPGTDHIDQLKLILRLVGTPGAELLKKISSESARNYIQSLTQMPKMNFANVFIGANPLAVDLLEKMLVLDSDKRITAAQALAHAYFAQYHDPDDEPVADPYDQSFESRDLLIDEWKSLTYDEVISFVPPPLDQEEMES

The term IC50 denotes the midpoint of a concentration-inhibition curve. On to `C[C@@H]1OC(=O)C2=C[C@@H](O)[C@@H](/C=C/CO)O[C@@H]21` [Compound 19, Hydroxy-TAN-2483B], for which the IC50 in assay [1] (Homo sapiens, 48 h) stood at 42 µM.
Turning to `C/C=C/[C@H]1O[C@H]2C(=C[C@H]1O)C(=O)O[C@H]2C` [(−)-TAN-2483B], the “inhibition of c-Src (sarcoma) kinase” value on c-Src (sarcoma) kinase was “inhibition”. In assay [2], the “inhibition of PTH-induced bone resorption” value is given as “inhibition”.
On to “(−)-TAN-2483B E-ethyl ester [Compound 14]”, for which the IC50 in assay [1] came out at 2.2 µM; in assay [3], 3.4 µM.
Take `C/C=C/[C@H]1O[C@@H]2C(=C[C@H]1O)C(=O)O[C@H]2C` [(−)-TAN-2483A]: at c-Src (sarcoma) kinase, the “inhibition of c-Src (sarcoma) kinase” value is “inhibition”. Further, the “inhibition of PTH-induced bone resorption” value in [2] is reported as “inhibition”.
The term inhibition denotes the share of the control response that was lost under treatment. In the case of `CCOC(=O)/C=C\[C@H]1O[C@H]2C(=C[C@H]1O)C(=O)O[C@H]2C` [Compound 10, (−)-TAN-2483B Z-ethyl ester], the IC50 was 3.6 µM in assay [1] (Homo sapiens, 48 h) and 9 µM in [5]. For the same molecule, the inhibition at 10 µM on NUAK2 (NUAK2, at 10 μM, read-out: Inhibition (IC50 at 10 μM)) worked out at 76%; at NUAK2 (NUAK2, single-point, at 10 μM, read-out: percent inhibition) it was 76%; at BMX (setting [6]), 80%; at BMX (setting [7]) it was 80%; at PLK1 (PLK1, at 10 μM, read-out: Inhibition (IC50 at 10 μM)), 81%; on PLK1 (PLK1, single-point, at 10 μM, read-out: percent inhibition), 81%. Further, the inhibition at 10 µM turned out to be 74% at MAPK14 (p38 alpha) (MAPK14 (p38 alpha), single-point, at 10 μM, read-out: percent inhibition); 74% at MAPK14 (p38 alpha) (MAPK14, at 10 μM, read-out: Inhibition (IC50 at 10 μM)); 81% on AMPK A2/B1/G1 (AMPK A2/B1/G1, at 10 μM, read-out: Inhibition (IC50 at 10 μM)); 81% on AMPK A2/B1/G1 (AMPK A2/B1/G1, single-point, at 10 μM, read-out: percent inhibition); 83% in assay [4] (setting [6]); 83% in assay [4] (setting [7]). Moreover, the inhibition at 10 µM on TXK (TXK1, at 10 μM, read-out: Inhibition (IC50 at 10 μM)) was determined as 71%; at TXK (TXK, single-point, at 10 μM, read-out: percent inhibition) it was 71%.

Source of the values: patent US9956198B2, “Furo[3,4-b]pyran compounds and pharmaceutical uses” (Victoria Link Limited, priority 2013, dated 2018).
